Assay results published in patent US12686687B2, “Compounds and uses thereof” (Foghorn Therapeutics Inc., priority 2019, dated 2026).

Biological target: T1, Nanoluciferase-BRD9 fusion protein (3×FLAG-NLuc-BRD9) in SYO-1 cells (Homo sapiens, UniProt Q9H8M2)
T1 construct: expressed in transfected cells; host or cells: SYO-1
T1 sequence (Q9H8M2 1-597): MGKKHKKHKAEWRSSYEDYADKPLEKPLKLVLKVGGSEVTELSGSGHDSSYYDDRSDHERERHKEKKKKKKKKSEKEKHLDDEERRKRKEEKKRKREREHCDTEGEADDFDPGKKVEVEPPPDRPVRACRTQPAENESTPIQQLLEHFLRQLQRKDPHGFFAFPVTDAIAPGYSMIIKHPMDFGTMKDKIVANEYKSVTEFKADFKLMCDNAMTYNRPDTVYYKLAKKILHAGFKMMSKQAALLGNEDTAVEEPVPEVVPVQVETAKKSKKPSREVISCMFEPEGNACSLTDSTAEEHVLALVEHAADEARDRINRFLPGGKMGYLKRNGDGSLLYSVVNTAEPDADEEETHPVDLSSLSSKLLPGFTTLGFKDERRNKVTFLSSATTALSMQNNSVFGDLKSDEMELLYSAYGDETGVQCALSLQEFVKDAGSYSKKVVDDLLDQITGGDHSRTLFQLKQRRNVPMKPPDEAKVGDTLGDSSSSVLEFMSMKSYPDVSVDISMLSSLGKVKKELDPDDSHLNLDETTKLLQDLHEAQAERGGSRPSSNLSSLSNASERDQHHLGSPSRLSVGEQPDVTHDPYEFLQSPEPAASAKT
Test: SYO1 BRD9 NanoLuc degradation assay
Type: cell-based
Conditions: Table 6C; SYO-1 cells expressing 3×FLAG-NLuc-BRD9, 6 hours incubation, 1 μM top dose; read-out: SYO1 BRD9-NanoLuc degradation IC50
Method in brief: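 Stable SYO-1 line expressing 3×FLAG-NLuc-BRD9 was seeded at 8000 cells/well, then treated next day for 6 h with 10-point 3-fold dilutions (top 1 μM final). Nano-Glo luminescence was read. % inhibition was normalised to DMSO (high control) and 1 μM reference BRD9 degrader (low control).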

DC50, < 0.01 µM:
COc1cc(-c2cn(C)c(=O)c3ccsc23)cc(OC)c1CN1CC(Oc2ccc3c(c2)C(=O)N(C2CCC(=O)NC2=O)C3)C1 (stereo not shown) [Compound D168], COc1cc(-c2cn(C)c(=O)c3ccsc23)cc(OC)c1CN1CC(Oc2ccc3c(c2)C(=O)N(C2CCC(=O)NC2=O)C3=O)C1 (stereo not shown) [Compound D169], COc1cc(-c2cn(C)c(=O)c3ccsc23)cc(OC)c1CN1CC(Oc2ccc3c(c2)CN(C2CCC(=O)NC2=O)C3=O)C1 (stereo not shown) [Compound D170], COc1cc(-c2cn(C)c(=O)c3cc(C)sc23)cc(OC)c1CN1CCC(CN2CCC3(CC2)CC(Oc2ccc4c(c2)C(=O)N(C2CCC(=O)NC2=O)C4=O)C3)CC1 (stereo not shown) [Compound D173], COc1cc(-c2cn(C)c(=O)c3ccsc23)cc(OC)c1CN1CCC(CN2CCC3(CC2)CC(Oc2ccc4c(c2)C(=O)N(C2CCC(=O)NC2=O)C4)C3)CC1 (stereo not shown) [Compound D174], COc1cc(-c2cn(C)c(=O)c3cc(C(=O)NC4CCN(CCN5CCC6(CC5)CN(c5ccc7c(c5)C(=O)N(C5CCC(=O)NC5=O)C7)C6)CC4(F)F)sc23)cc(OC)c1CN(C)C (stereo not shown) [Compound D175], COc1cc(-c2cn(C)c(=O)c3ccsc23)cc(OC)c1CN1CCN(c2ccc3c(c2)C(=O)N(C2CCC(=O)NC2=O)C3)CC12CCC2 (stereo not shown) [Compound D176], COc1cc(-c2cn(C)c(=O)c3cc(C(=O)NC4CN(c5ccc6c(c5)C(=O)N(C5CCC(=O)NC5=O)C6)CC4(F)F)sc23)cc(OC)c1CN(C)C (stereo not shown) [Compound D177], COc1cc(-c2cn(C)c(=O)c3ccsc23)cc(OC)c1CN1CCC2(CC1)CN(c1ccc3c(c1)CN(C1CCC(=O)NC1=O)C3=O)C2 (stereo not shown) [Compound D178], COc1cc(-c2cn(C)c(=O)c3cc(C(=O)NC4CCN(C5CCN(c6ccn7c(=O)n(C8CCC(=O)NC8=O)nc7c6)CC5)CC4(F)F)sc23)cc(OC)c1CN(C)C (stereo not shown) [Compound D179], COc1cc(-c2cn(C)c(=O)c3cc(C(=O)NC4CN(c5ccc6c(c5)CN(C5CCC(=O)NC5=O)C6=O)CC4(F)F)sc23)cc(OC)c1CN(C)C (stereo not shown) [Compound D180], COc1cc(-c2cn(C)c(=O)c3cc(C(=O)NC4CN(C5CCN(c6ccc7c(c6)CN(C6CCC(=O)NC6=O)C7=O)CC5)CC4(F)F)sc23)cc(OC)c1CN(C)C (stereo not shown) [Compound D181], COc1cc(-c2cn(C)c(=O)c3cc(C(=O)NC4CN(C5CCN(c6ccc7c(c6)C(=O)N(C6CCC(=O)NC6=O)C7)CC5)CC4(F)F)sc23)cc(OC)c1CN(C)C (stereo not shown) [Compound D182], COc1cc(-c2cn(C)c(=O)c3ccsc23)cc(OC)c1CN1CCC2(CC1)CN(c1ccc3c(c1)C(=O)N(C1CCC(=O)NC1=O)C3=O)C2 (stereo not shown) [Compound D183], COc1cc(-c2cn(C)c(=O)c3cc(C)sc23)cc(OC)c1CN1CCC(CN2CCC3(CC2)CN(c2ccc4c(c2)C(=O)N(C2CCC(=O)NC2=O)C4=O)C3)CC1 (stereo not shown) [Compound D184], COc1cc(-c2cn(C)c(=O)c3ccsc23)cc(OC)c1CN1CCC(CN2CCC3(CC2)CN(c2ccc4c(c2)C(=O)N(C2CCC(=O)NC2=O)C4=O)C3)CC1 (stereo not shown) [Compound D185], COc1cc(-c2cn(C)c(=O)c3ccsc23)cc(OC)c1CN1CCC2(CC1)CN(c1ccc3c(c1)C(=O)N(C1CCC(=O)NC1=O)C3)C2 (stereo not shown) [Compound D186], COc1cc(-c2cn(C)c(=O)c3cc(C(=O)NC4CN(C5CCN(c6ccc7c(c6)C(=O)N(C6CCC(=O)NC6=O)C7=O)CC5)CC4(F)F)sc23)cc(OC)c1CN(C)C (stereo not shown) [Compound D187], COc1cc(-c2cn(C)c(=O)c3cc(C(=O)NC4CCN(C)CC4(F)F)sc23)cc(OC)c1CN1CC(CN2CCC3(CC2)CN(c2ccc4c(c2)C(=O)N(C2CCC(=O)NC2=O)C4)C3)C1 (stereo not shown) [Compound D188], COc1cc(-c2cn(C)c(=O)c3ccsc23)cc(OC)c1CN1CCC(CN2CCC3(CC2)CC(Oc2ccc4c(c2)C(=O)N(C2CCC(=O)NC2=O)C4=O)C3)CC1 (stereo not shown) [Compound D189], COc1cc(-c2cn(C)c(=O)c3cc(C(=O)NC4CN(c5ccc6c(c5)C(=O)N(C5CCC(=O)NC5=O)C6=O)CC4(F)F)sc23)cc(OC)c1CN(C)C (stereo not shown) [Compound D190], COc1cc(-c2cn(C)c(=O)c3cc(C(=O)NC4CCN(C5CN(c6ccc7c(c6)C(=O)N(C6CCC(=O)NC6=O)C7=O)C5)CC4(F)F)sc23)cc(OC)c1CN(C)C (stereo not shown) [Compound D191], COc1cc(-c2cn(C)c(=O)c3cc(C(=O)NC4CCN(c5ccc6c(c5)C(=O)N(C5CCC(=O)NC5=O)C6=O)CC4(F)F)sc23)cc(OC)c1CN(C)C (stereo not shown) [Compound D192], COc1cc(-c2cn(C)c(=O)c3sccc23)cc(OC)c1CN1CCC(CN2CCC3(CC2)CC(Oc2ccc4c(c2)CN(C2CCC(=O)NC2=O)C4=O)C3)CC1 (stereo not shown) [Compound D193], COc1cc(-c2cn(C)c(=O)c3ccsc23)cc(OC)c1CN1CCN(c2ccc3c(c2)C(=O)N(C2CCC(=O)NC2=O)C3)CC1 (stereo not shown) [Compound D194], COc1cc(-c2cn(C)c(=O)c3cc(C(=O)NC4CCN(CCN5CCC(c6ccc7c(c6)CN(C6CCC(=O)NC6=O)C7=O)CC5)CC4(F)F)sc23)cc(OC)c1CN(C)C (stereo not shown) [Compound D195], COc1cc(-c2cn(C)c(=O)c3cc(C(=O)NC4CCN(CCN5CCN(c6ccc7c(c6)CN(C6CCC(=O)NC6=O)C7=O)CC5)CC4(F)F)sc23)cc(OC)c1CN(C)C (stereo not shown) [Compound D196], COc1cc(-c2cn(C)c(=O)c3sccc23)cc(OC)c1CN1CCC(CN2CCC3(CC2)CC(Oc2ccc4c(c2)CN(C2CCC(=O)NC2=O)C4=O)C3)CC1 (stereo not shown) [Compound D199], COc1cc(-c2cn(C)c(=O)c3cc(C(=O)NC4CCN(CCN5CCN(c6ccc7c(c6)C(=O)N(C6CCC(=O)NC6=O)C7)CC5)CC4(F)F)sc23)cc(OC)c1CN(C)C (stereo not shown) [Compound D200], COc1cc(-c2cn(C)c(=O)c3sncc23)cc(OC)c1CN1CC(CN2CCC3(CC2)CN(c2ccc4c(c2)C(=O)N(C2CCC(=O)NC2=O)C4)C3)C1 (stereo not shown) [Compound D201], COc1cc(-c2cn(C)c(=O)c3ncsc23)cc(OC)c1CN1CCC2(CC1)CN(c1ccc3c(c1)C(=O)N(C1CCC(=O)NC1=O)C3=O)C2 (stereo not shown) [Compound D202], COc1cc(-c2cn(C)c(=O)c3sncc23)cc(OC)c1CN1CCC2(CC1)CN(c1ccc3c(c1)C(=O)N(C1CCC(=O)NC1=O)C3)C2 (stereo not shown) [Compound D203], COc1cc(-c2cn(C)c(=O)c3ncsc23)cc(OC)c1CN1CC(Oc2ccc3c(c2)CN(C2CCC(=O)NC2=O)C3=O)C1 (stereo not shown) [Compound D206], COc1cc(-c2cn(C)c(=O)c3sccc23)cc(OC)c1CN1CCC2(CC1)CN(c1ccc3c(c1)C(=O)N(C1CCC(=O)NC1=O)C3)C2 (stereo not shown) [Compound D207]

DC50, > 1 µM:
COc1cc(-c2c(C)n(C)c(=O)c3cc(C(=O)NC4CCN(C)CC4(F)F)sc23)cc(OC)c1CN1CC(CN2CCC3(CC2)CN(c2ccc4c(c2)C(=O)N(C2CCC(=O)NC2=O)C4)C3)C1 (stereo not shown) [Compound D172]

DC50, > 0.1 µM:
COc1cc(-c2cn(C)c(=O)c3ncsc23)cc(OC)c1CN1CCC2(CC1)CN(c1ccc3c(c1)C(=O)N(C1CCC(=O)NC1=O)C3)C2 (stereo not shown) [Compound D204]

DC50, > 0.01 µM:
COc1cc(-c2c(C)n(C)c(=O)c3cc(C(=O)NC4CCN(CCN5CCN(c6ccc7c(c6)C(=O)N(C6CCC(=O)NC6=O)C7)CC5)CC4(F)F)sc23)cc(OC)c1CN(C)C (stereo not shown) [Compound D171]
